In US20140242600A1, “IMAGING THE HETEROGENEOUS UPTAKE OF RADIOLABELED MOLECULES IN SINGLE LIVING CELLS” (priority 2011, published 2014):

Columns and labels:
[1] = test system: HeLa cells transduced with HSV1-ttk; test: FHBG accumulation in HeLa cells transduced with mrfp1/HSV1-ttk reporter, radioluminescence and fluorescence microscopy; format: cell-based, human; conditions: 300 μCi 18F-FHBG 2 hours
Excerpt: To further exploit the microscope's ability to visualize both fluorescent and radioactive probe distributions, human cervical cancer cells (HeLa) were transduced with a dual fusion reporter vector, comprising reporter genes encoding the monomeric red fluorescent protein (mrfp1) and the mutant herpes simplex virus type 1 truncated thymidine kinase (HSV1-ttk). HSV1-ttk can selectively metabolize and trap radiolabeled substrates such as FHBG. Substrates such as 9-(4-[^18F]Fluoro-3hydroxymethylbutyl) guanine (^18F-FHBG) have low affinity for mammalian thymidine kinase (TK) enzymes but high affinity for HSV1-TK. FHBG is selectively metabolized and trapped within transduced cells so it can be used to image cell trafficking in living subjects with PET.
PCR amplification and standard cloning techniques were used to insert the mrfp and ttk genes from plasmid pCONA3.1-CMV-hrl-mrfp-ttk. Lentiviral EF1-gfp vectors were obtained and the gfp fragment was removed from the vector and replaced by mrfp-ttk. For PCR amplifications, different 5′ and 3′ end primers were used to generate the fusion vector (EF1-mrfp-ttk).
HeLa human cervical cancer and 293T human embryonic kidney cells were acquired and cultured in high-glucose Dulbecco's modified eagle medium supplemented with 10% fetal bovine serum. 293T cells were used to produce the lentivirus following standard procedures. HeLa cells were transduced with concentrated lentivirus for 48 hours and then trypsinized and seeded directly onto a scintillator plate coated with fibronectin (10 μg/ml), one day before imaging.
For imaging of cell transduction with FHBG and RFP, transduced HeLa cells were incubated for 2 hours with 300 μCi of ^18F-FHBG.
In transduced cells, accumulation of FHBG was coincident with expression of mrfp1 measured by fluorescence microscopy. A brightfield image (FIG. 5A), a radioluminescence image (FIG. 5B) and a fluorescence image (FIG. 5C) were obtained from the same field. It was seen that 88% of the cells visible on the brightfield image (217/245) were clearly distinguishable both on radioluminescence (FIG. 5B) and fluorescence images (FIG. 5C), while only 9% (21/245) could not be seen on either image. The remaining 7 cells were excluded from the analysis due to ambiguous radioluminescence intensity caused by the proximity to a strongly positive cell.

wild-type HeLa cells = test: FHBG uptake in wild-type HeLa cells, radioluminescence microscopy; format: cell-based, human; conditions: FHBG 300 μCi, 2 h
Excerpt: Generally, radioluminescence signals for FHBG-positive and FHBG-negative cells were more distinctly separated than fluorescence signals for RFP-positive and RFP-negative cells.

[2] = test system: mammalian thymidine kinase (TK) enzymes; conditions: background statement; cited from earlier work
[3] = test system: HSV1-TK (Human herpesvirus 1); conditions: background statement; cited from earlier work
HeLa cells = test: Radioluminescence microscopy of FDG uptake in HeLa cells on scintillator plate; format: cell-based; conditions: HeLa cells fasted 2 h, 400 μCi FDG 20 min 37° C., 20 minute exposure
Experimental: To visualize the uptake of radiotracer at the microscopic level, cells were cultured directly on a scintillating plate made of a material that converts incident beta radiation into optical photons via radioluminescence. In these experiments, scintillation plates were used with dimensions 10 mm×10 mm×0.5 mm that were made of CdWO4, a dense, high-Z, non-hygroscopic material, with both sides polished to allow for concurrent optical imaging (MTI Corp.). In one experiment, HeLa cells were seeded and cultured on the scintillating plate, immersed in cell culture medium (Dulbecco's Modified Eagle Medium containing 10% fetal calf serum) for 12-18 hours. After the cells had adhered to the surface of the scintillator plate and divided adequately, they were fasted for two hours in glucose-free cell medium and incubated for 20 minutes at 37° C. with 400 μCi of ^18F-fluorodeoxyglucose (FDG). […]
Radioluminescence images were taken with an EM gain of 251/1200, the excitation shutter closed, and the emission shutter open. […] Then, in luminescence mode, the image sharpness was optimized by varying the focal distance while acquiring 5 minute-exposure images. […]

[4] = test system: MDA-MB-231 human breast cancer cells; test: Single-cell FDG uptake at a fixed time-point, radioluminescence and fluorescence microscopy; format: cell-based; conditions: glucose-deprived 1 hour
Excerpt: In this illustration, the common radiotracer [^18F]fluorodeoxyglucose (FDG) was used. […] The radioluminescence microscopy set-up consisted of cells adhering to a 100 μm-thin CdWO4 scintillator plate that was immersed in a glass-bottom dish filled with cell culture medium as shown schematically in FIG. 2. The dish was imaged using an inverted microscope fitted with a high-NA objective and an electron-multiplying charge-coupled device (EM-CCD).
Brightfield images were acquired with no EM gain, a neutral-density filter on the excitation, and the emission shutter open. […] The brightfield mode was used to set the microscope into focus. […] For fluorescence microscopy, a 460 nm/535 nm filter set for 2-NBDG imaging (Chroma, D460/50x and D535/40m) and a 540 nm/600 nm filter set for RFP imaging (Chroma, HQ540/40x and HQ600/50m) were used.
One side of the scintillator plate was coated with fibronectin (10 μg/ml) to allow the cells to attach. After the plate had dried, the cells were seeded by placing a 50 μl drop containing 10^4 cells on to the fibronectin-coated plate.
After washing the cells, brightfield, radioluminescence and fluorescence micrographs were acquired.
To measure radiotracer uptake in single cells, circular regions of interest (ROI's; diameter, 24 μm) were manually placed on the cells using the brightfield micrograph. […] The same procedure was also applied to fluorescence micrographs.

[5] = test system: breast cancer cells (MDA-MB-231); test: Single-cell FDG uptake and efflux over time (pharmacokinetic study), serial radioluminescence imaging; format: cell-based, human
Experimental: To investigate the utility of radioluminescence microscopy for single-cell pharmacokinetic studies, FDG uptake, FDG efflux and FDG withdrawal conditions were analyzed. FDG uptake in breast cancer cells (MDA-MB-231) over time was monitored by depriving cells of glucose for 1 hour and then adding 5 μCi of FDG to the medium. Serial brightfield and radioluminescence images were acquired every 6 minutes for a period of 8 hours.
To monitor FDG efflux, breast cancer cells (MDA-MB-231) were subjected to conditions known to minimize FDG influx, i.e. thorough competition from glucose and withdrawal of FDG.
The influx of FDG into glucose-deprived cells was described using the following two-tissue compartmental kinetic model:
where Ca is the extracellular FDG concentration (assumed to be fixed); C(t) is the time-dependent intracellular FDG concentration (including free FDG and bound FDG-6-P); and K1, k2 and k3 are the rate constants representing influx, efflux, and irreversible phosphorylation of FDG, respectively. Fort>>1/(k2+k3, the intracellular and extracellular compartments are in equilibrium, and the intracellular concentration of FDG increases linearly with time due to irreversible trapping of FDG. The parameters of this linear rise (i.e. slope and intercept) are the Patlak coefficients. The slope of the linear rise is the product of two terms, namely K1 the influx rate, and k3/(k2+k3) is the fraction of the intracellular FDG irreversibly metabolized. A non-linear weighted least-squares fitting was used to estimate the parameters of the model. The fitting weights were adjusted to decrease the contribution of later time points, which have higher noise due to radioactive decay.
A mathematical model was also derived to represent FDG efflux from a cell. The model assumed that (1) following withdrawal of FDG, the concentration of FDG in the cell culture medium remained negligible due to the large extracellular volume (0.2 ml), and (2) k3>>k4. Under these assumptions, FDG concentration within a single cell can be described by the sum of a slow and a fast exponential decay.
Efflux of FDG from cells was modeled using a two-tissue compartmental model:
where a1 and a2 are positive coefficients that depend on the initial conditions, and λ1 and λ2 are the eigenvalues of the differential system of equations describing transport of FDG between compartments. The rate constant k4 which models the possible dephosphorylation of FDG-6-phosphate (FDG-6-P) was included in this model but assumed to be much smaller than k3. Furthermore, due to the large extracellular volume (0.2 ml), the concentration of FDG in the cell culture medium was assumed to remain negligible after withdrawal of FDG. Under these assumptions, the eigenvalues can be approximated as
These rate parameters were estimated by fitting the efflux model to the measured time-activity curves. For cells for which the solution of the fit yielded λ1≈λ2 or λ2<1 min^−1, the efflux curve was fitted with a single exponential function. In the special case of irreversible trapping (k4=0), the model is described by a single exponential decay with rate: λ1=k2+k3. The model was in agreement with radioluminescence measurements of single cells, confirming that two processes are occurring concurrently at different rates. Unbound FDG contained within the cell quickly diffuses out following concentration gradients, whereas FDG-6-phosphate (FDG-6-P) requires slow dephosphorylation to cross the cell membrane.

HSV1-TK (Human herpesvirus 1), sequence (P0DTH5 whole entry): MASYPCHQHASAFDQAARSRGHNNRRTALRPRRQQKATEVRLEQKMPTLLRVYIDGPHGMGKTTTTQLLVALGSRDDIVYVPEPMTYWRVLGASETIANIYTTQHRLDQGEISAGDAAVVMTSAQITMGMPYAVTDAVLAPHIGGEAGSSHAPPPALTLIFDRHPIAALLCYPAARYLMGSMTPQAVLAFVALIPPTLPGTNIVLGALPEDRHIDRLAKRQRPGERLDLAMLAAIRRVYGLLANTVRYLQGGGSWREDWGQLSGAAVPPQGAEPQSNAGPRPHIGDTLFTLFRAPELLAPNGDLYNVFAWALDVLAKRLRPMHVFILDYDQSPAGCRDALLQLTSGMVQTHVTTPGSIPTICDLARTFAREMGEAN

SMILES	radiotracer uptake pattern in transduced cells ([1]; 100× magnification)	cells that could not be seen on either radioluminescence or fluorescence image ([1]; 21/245 cells)	cells visible on brightfield clearly distinguishable both on radioluminescence and fluorescence images ([1]; 217/245 cells)	correlation (r) of RFP fluorescence intensity with FHBG radioluminescence intensity ([1]; transduced HeLa cells)	radioluminescence signal in wild-type HeLa cells (wild-type HeLa cells)	affinity for mammalian thymidine kinase (TK) enzymes [2]	affinity for HSV1-TK [3]	colocalization between cell outline (brightfield) and radioluminescence intensity (HeLa cells)	cell-to-cell variation of radioluminescence intensity (FDG uptake) ([4]; FDG 400 μCi 1 hour 37° C.)	correlation (r) of FDG uptake with uptake of 2-NBDG in single cells ([4]; FDG 400 μCi + 2-NBDG 100 μM 1 hour 37° C., P<10^−5)	cell radioactivity after withdrawal of FDG from the media ([5]; cells previously incubated with FDG 400 μCi, 1 hour)	cell radioactivity after addition of glucose to the medium ([5]; glucose 25 mM added at 2 hours)	time at which the majority of cells stopped accumulating FDG ([5]; glucose-deprived 1 hour, 5 μCi FDG in medium)	time course of cell radioactivity (FDG uptake) ([5]; glucose-deprived 1 hour, 5 μCi FDG, images every 6 minutes for 8 hours)	variation of Patlak coefficients across cells ([5]; two-tissue compartmental kinetic model of FDG influx)
Nc1nc2c(ncn2CCC(CO)C[18F])c(=O)[nH]1 (stereo not drawn) [FHBG, 9-(4-[^18F]-fluoro-3-hydroxy-methylbutyl) guanine]	focal radiotracer uptake	9%	88%	0.34	no measurable radioluminescence signal	low affinity	high affinity								
OC[C@H]1OC(O)[C@H]([18F])[C@@H](O)[C@@H]1O (stereo partly drawn) [FDG, ^18F-fluorodeoxyglucose]								good colocalization	varied significantly from cell to cell	0.74	fast decrease in cell radioactivity	decline in cell radioactivity	approximately 3 hours	linear increase in radioactivity, followed by a plateau and a slow decrease after 3 hours	Large variations
